Experimental data reported in patent publication US9024021B2, “Diarylacetylene hydrazide containing tyrosine kinase inhibitors” (Sun Pharma Advanced Research Company Ltd., priority 2011, dated 2015).

Legend:
K562 cells = test: In-vitro cell proliferation assay (MTT), K562 cells; type: cell-based; conditions: for inhibition at 0.01 µM / inhibition at 0.1 µM: Homo sapiens
Procedure: In-Vitro Cell Proliferation Assay
K562/U937 cells (2×10^4 per well) were incubated with the test compounds/vehicle in a total volume of 200 μL of media at 37° C. with 5% CO2. […] The cells were incubated overnight at 37° C. with 5% CO2. On Day 5 the optical density was measured at 570 nm with 630 nm as reference wavelength. The optical density in the vehicle treated wells was compared with that of the test compound treated wells.

Abl (T315I) (human) = molecular target: T1, Abl (T315I) (human) (Homo sapiens, UniProt P00519, T315I); test: Abl-T315I kinase inhibition (in vitro); type: biochemical
T1 construct: purchased Millipore Pharma Services (contract assay, UK pharmacology laboratory)
Procedure: The kinase assays were performed by Millipore Pharma Services at their UK pharmacology laboratory.
[specific activity approx. 500 cpm/pmol, concentration as required). The reaction is initiated by the addition of the MgATP mix. After incubation for 40 minutes at room temperature, the reaction is stopped by the addition of 5 μL of a 3% phosphoric acid solution. 10 μL of the reaction is then spotted onto a P30 filtermat and washed three times for 5 minutes in 75 mM phosphoric acid and once in methanol prior to drying and scintillation counting.
Within each kinase assay, percent of control values were calculated for each test compound raw data point based on mean minimum (0%) and maximum (100%) controls (n=4 per control) for that kinase (sample−mean minimum/mean maximum−mean minimum×100%). Percent inhibition was calculated from these values (100−mean percent of control).

Structure (SMILES) | inhibition at 0.01 µM (K562 cells; 10 nM) | inhibition at 0.1 µM (K562 cells; 100 nM) | further results
Cc1ccc(C(=O)NNC(=O)c2c(Cl)cc(Cl)cc2Cl)cc1C#Cc1cnc2ccccc2c1 [I.1, 2,4,6-Trichloro-N′-[4-methyl-3-[2-(3-quinolyl)ethynyl]benzoyl]benzohydrazide] | 101% | 105% | –
Cc1ccc(C(=O)NNC(=O)c2ccc(CN3CCN(C)CC3)c(C(F)(F)F)c2)cc1C#Cc1cnc2ccccc2c1 [I.3, 4-Methyl-N′-[4-[(4-methylpiperazin-1-yl)methyl]-3-(trifluoromethyl)benzoyl]-3-[2-(3-quinolyl)ethynyl]benzohydrazide] | 14.6% | 73.4% | –
Cc1ccc(C(=O)NNC(=O)c2c(Cl)cccc2Cl)cc1C#Cc1cnc2ccccc2c1 [I.5, N′-(2,6-Dichlorobenzoyl)-4-methy1-3-[2-(3-quinolyl)ethynyl]benzohydrazide] | – | – | % Inhibition of Abl-T315I kinase (Abl (T315I) (human); 3 nM): 30.0%; % Inhibition of Abl-T315I kinase (Abl (T315I) (human); 30 nM): 83.0%; % Inhibition of cell proliferation in K562 cells (K562 cells; 10 nM): 99.8%; % Inhibition of cell proliferation in K562 cells (K562 cells; 100 nM): 99.9%
Cc1cn(-c2cc(C(=O)NNC(=O)c3ccc(C)c(C#Cc4cnc5ccccc5c4)c3)cc(C(F)(F)F)c2)cn1 [I.7, 4-Methyl-N′-[3-(4-methylimidazol-1-yl)-5-(trifluoromethyl)benzoyl]-3-[2-(3-quinolyl)ethynyl]benzohydrazide] | 12.6% | 43.1% | –
Cc1cc(C)c(C(=O)NNC(=O)c2ccc(C)c(C#Cc3cnc4ccccc4c3)c2)c(C)c1 [I.8, 2,4,6-Trimethyl-N′-[4-methyl-3-[2-(3-quinolyl)ethynyl]benzoyl]benzohydrazide] | 53.6% | 80.3% | –
Cc1ccc(C(=O)NNC(=O)c2c(C)cccc2Br)cc1C#Cc1cnc2ccccc2c1 [I.11, N′-(2-Bromo-6-methylbenzoyl)-4-methyl-3-[2-(3-quinolyl)ethynyl]benzohydrazide] | 78.9% | 79.9% | –
COc1cccc(C)c1C(=O)NNC(=O)c1ccc(C)c(C#Cc2cnc3ccccc3c2)c1 [I.13, N′-(2-Methoxy-6-methylbenzoyl)-4-methyl-3-[2-(3-quinolyl)ethynyl]benzohydrazide] | 52.2% | 73.5% | –
Cc1ccc(C(=O)NNC(=O)c2c(C)cccc2F)cc1C#Cc1cnc2ccccc2c1 [I.14, N′-(2-Fluoro-6-methylbenzoyl)-4-methyl-3-[2-(3-quinolyl)ethynyl]benzohydrazide] | 68.5% | 71.7% | inhibition at 0.003 µM (Abl (T315I) (human); 3 nM): 1%; inhibition at 0.03 µM (Abl (T315I) (human); 30 nM): 60%
Cc1ccc(C(=O)NNC(=O)c2c(Cl)cc(Cl)cc2Cl)cc1C#Cc1cnc2cnccn12 [I.15, 2,4,6-Trichloro-N′-[3-[2-(2-imidazo[1,2-a]pyrazin-3-yl)ethynyl]-4-methylbenzoyl]benzohydrazide] | – | – | % Inhibition of cell proliferation in K562 cells (K562 cells; 10 nM): 82.8%; % Inhibition of cell proliferation in K562 cells (K562 cells; 100 nM): 85.0%
Cc1ccc(C(=O)NNC(=O)c2c(C)cccc2Cl)cc1C#Cc1cnc2ccccn12 [I.19, N′-(2-Chloro-6-methylbenzoyl)-3-[2-(imidazo[1,2-a]pyridin-3-yl)ethynyl]-4-methylbenzohydrazide] | 60.2% | 80.2% | –
Cc1cccc(Cl)c1C(=O)NNC(=O)c1ccc(F)c(C#Cc2cnc3ccccc3c2)c1 [I.21, N′-(2-Cchloro-6-methylbenzoyl)-4-fluoro-3-[2-(3-quinolyl)ethynyl]benzohydrazide] | – | – | % Inhibition of cell proliferation in K562 cells (K562 cells; 10 nM): 40.9%; % Inhibition of cell proliferation in K562 cells (K562 cells; 100 nM): 98.6%
Cc1ccc(C(=O)NNC(=O)c2c(F)cccc2I)cc1C#Cc1cnc2ccccc2c1 [I.23, N′-(2-Fluoro-6-iodobenzoyl)-4-methyl-3-[2-(3-quinolyl)ethynyl]benzohydrazide] | 68.1% | 72.6% | –
Cc1ccc(C(=O)NNC(=O)c2c(Cl)cccc2C(F)(F)F)cc1C#Cc1cnc2ccccc2c1 [I.24, N′-[2-Chloro-6-(trifluoromethyl)benzoyl]-4-methyl-3-[2-(3-quinolyl)ethynyl]benzohydrazide] | 71.1% | 71.3% | –
Cc1ccc(C(=O)NNC(=O)c2c(F)cccc2C(F)(F)F)cc1C#Cc1cnc2ccccc2c1 [I.25, N′-[2-Fluoro-6-(trifluoromethyl)benzoyl]-4-methyl-3-[2-(3-quinolyl)ethynyl]benzohydrazide] | 71.5% | 73% | inhibition at 0.003 µM (Abl (T315I) (human); 3 nM): 26%; inhibition at 0.03 µM (Abl (T315I) (human); 30 nM): 65%
Cc1ccc(C(=O)NNC(=O)c2c(C)cccc2Cl)cc1C#Cc1cnc2ccc(Cl)cc2n1 [I.26, N′-(2-Chloro-6-methylbenzoyl)-3-[2-(7-chloroquinoxalin-2-yl)ethynyl]-4-methylbenzohydrazide] | 71.8% | 78.2% | inhibition at 0.003 µM (Abl (T315I) (human); 3 nM): 3%; inhibition at 0.03 µM (Abl (T315I) (human); 30 nM): 41%
Cc1ccc(C(=O)NNC(=O)c2c(C)cccc2Cl)cc1C#Cc1cnc2ccccc2n1 [I.27, N′-(2-Chloro-6-methylbenzoyl)-4-methyl-3-[2-(quinoxalin-2-yl)ethynyl]benzohydrazide] | 79.3% | 75.3% | inhibition at 0.003 µM (Abl (T315I) (human); 3 nM): 0%; inhibition at 0.03 µM (Abl (T315I) (human); 30 nM): 55%
Cc1ccc(C(=O)NNCc2cccnc2Cl)cc1C#Cc1cnc2ccccc2c1 [I.29, N′-(2-Chloronicotinyl)-4-methyl-3-[2-(3-quinolyl)ethynyl]benzohydrazide] | 27.7% | 78.5% | –
Cc1ccc(C(=O)NNC(=O)c2ccccc2C)cc1C#Cc1cnc2ccccc2c1 [I.30, N′-(2-Methylbenzoyl)-4-methyl-3-[2-(3-quinolyl)ethynyl]benzohydrazide] | 49% | 85% | –
CCc1cccc(Cl)c1C(=O)NNC(=O)c1ccc(C)c(C#Cc2cnc3ccccc3c2)c1 [I.31, N′-(2-Chloro-6-ethylbenzoyl)-4-methyl-3-[2-(3-quinolyl)ethynyl]benzohydrazide] | 74.2% | 81.4% | –
Cc1ccc(C(=O)NNC(=O)c2c(Cl)cccc2C(C)C)cc1C#Cc1cnc2ccccc2c1 [I.32, N′-(2-Chloro-6-isopropylbenzoyl)-4-methyl-3-[2-(3-quinolyl)ethynyl]benzohydrazide] | 50.6% | 81.9% | –
COc1cccc(Cl)c1C(=O)NNC(=O)c1ccc(C)c(C#Cc2cnc3ccccc3c2)c1 [I.34, N′-(2-Chloro-6-methoxybenzoyl)-4-methyl-3-[2-(3-quinolyl)ethynyl]benzohydrazide] | 75.5% | 82.2% | –
Cc1ccc(C(=O)NNC(=O)c2c(C)cccc2[N+](=O)[O-])cc1C#Cc1cnc2ccccc2c1 [I.36, N′-(2-Methyl-6-nitrobenzoyl)-4-methyl-3-[2-(3-quinolyl)ethynyl]benzohydrazide] | 75.9% | 77.3% | –
Cc1ccc(C(=O)NNC(=O)c2c(Cl)cccc2I)cc1C#Cc1cnc2ccccc2c1 [I.39, N′-(2-Chloro-6-iodobenzoyl)-4-methyl-3-[2-(3-quinolyl)ethynyl]benzohydrazide] | 77.1% | 80.5% | –
Cc1ccc(C(=O)NNC(=O)c2ccccc2Cl)cc1C#Cc1cnc2ccccc2c1 [I.40, N′-(2-Chlorobenzoyl)-4-methyl-3-[2-(3-quinolyl)ethynyl]benzohydrazide] | 59.9% | 84.3% | –
Cc1ccc(C(=O)NNC(=O)c2c(Cl)cccc2Cl)cc1C#Cc1cnc2cccnn12 [I.41, N′-(2,6-Dichlorobenzoyl)-4-methyl-3-[(imidazo(1,2-b)pyridazin-3-yl)ethynyl]benzohydrazide] | 82.5% | 81.1% | –
Cc1ccc2ncc(C#Cc3cc(C(=O)NNC(=O)c4c(C)cccc4Cl)ccc3C)cc2c1 [I.44, N′-(2-Chloro-6-methylbenzoyl)-4-methyl-3-[2-(6-methyl-3-quinolyl)ethynyl]benzohydrazide] | 77.7% | 84.4% | –
Cc1ccc(C(=O)N(C)NC(=O)c2c(C)cccc2Cl)cc1C#Cc1cnc2ccccc2c1 [I.45, N-Methyl-N′-(2-Chloro-6-methylbenzoyl)-4-methyl-3-[2-(3-quinolyl)ethynyl]benzohydrazide] | 10.2% | 78.2% | –
Cc1ccc(C(=O)NNC(=O)c2c(C)cccc2C)cc1C#Cc1cnc2ccccc2c1 [I.46, N′-(2,6-Dimethylbenzoyl)-4-methyl-3-[2-(3-quinolyl)ethynyl]benzohydrazide] | 77.9% | 83.9% | –
Cc1ccc(C(=O)NNC(=O)c2c(C)cccc2Cl)cc1C#Cc1cnc2ccc(Cl)cc2c1 [I.50, N′-(2-Chloro-6-methylbenzoyl)-4-methyl-3-[2-(6-chloro-3-quinolyl)ethynyl]benzohydrazide] | 69.6% | 75% | –
Cc1cccc(Cl)c1C(=O)NNC(=O)c1cccc(C#Cc2cnc3ccccc3c2)n1 [I.60, N′-(2-Chloro-6-methylbenzoyl)-6-[2-(3-quinolyl)ethynyl]pyridine-2-carboxylic acid hydrazide] | 8.6% | 8.5% | –
